Laboratory results: patent US20100267561A1, “HERBICIDAL PYRIDAZINONE DERIVATIVES” (priority 2007, published 2010)

What was measured:
Type in all cases: in vivo
[1] = system: winter barley (Hordeum vulgare); assay: Test B postemergence plant response; conditions: for Plant response rating, Barley: Postemergence, scale 0 to 100, 0 no effect, 100 complete control
Summary of the method: (§1)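 Postemergence greenhouse test; plants at 2 to 18 cm (1- to 4-leaf stage) given formulated test chemical, held 13 to 15 days, then visually rated against untreated controls on a 0 (no effect) to 100 (complete control) scale; dash means no result.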

[2] = system: windgrass (Apera spica-venti); assay: Test B postemergence plant response; conditions: for Windgrass plant response rating: postemergence, 0-100 scale; for Plant response rating, Windgrass: Postemergence
Summary of the method: as §1

[3] = system: cocklebur (Xanthium strumarium); assay: Test B pre-/postemergence plant response; conditions: for Cocklebur plant response rating: 8 g ai/ha
Summary of the method: (§2)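 Preemergence and postemergence (plants 2-18 cm, 1- to 4-leaf stage) applications used test chemicals in a non-phytotoxic solvent with surfactant. Plants were held in a greenhouse 13 to 15 days, then rated visually against controls on a 0-100 scale (0 no effect, 100 complete control).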

[4] = system: common (oilseed) sunflower (Helianthus annuus); assay: Test B pre-/postemergence plant response; conditions: Preemergence; for Sunflower plant response rating: scale 0 to 100
Summary of the method: as §2

[5] = system: yellow nutsedge (Cyperus esculentus); assay: Test B pre-/postemergence plant response
Summary of the method: as §2

[6] = system: common ragweed (Ambrosia elation); assay: Test B pre-/postemergence plant response; conditions: for Ragweed plant response rating: postemergence, 0-100 scale
Summary of the method: as §2

[7] = system: wheat (Triticum aestivum); assay: Test B pre-/postemergence plant response
Summary of the method: as §2

[8] = system: johnsongrass (Sorghum halepense); assay: Test B pre-/postemergence plant response
Summary of the method: as §2

[9] = system: catchweed bedstraw (Galium aparine); assay: Test B pre-/postemergence plant response; conditions: Preemergence; for Galium plant response rating: scale 0 to 100
Summary of the method: as §2

[10] = system: large crabgrass (Digitaria sanguinalis); assay: Test B pre-/postemergence plant response
Summary of the method: as §2

[11] = system: lambsquarters (Chenopodium album); assay: Test B pre-/postemergence plant response; conditions: for Lambsquarters plant response rating: postemergence, 0-100 scale; for Plant response rating, Lambsquarters: Postemergence
Summary of the method: as §2

[12] = system: blackgrass (Alopecurus myosuroides); assay: Test B pre-/postemergence plant response; conditions: for Blackgrass plant response rating: 8 g ai/ha
Summary of the method: as §2

[13] = system: giant foxtail (Setaria faberii); assay: Test B pre-/postemergence plant response
Summary of the method: as §2

wild oat (Avena fatua) = assay: Test B pre-/postemergence plant response
Summary of the method: as §2

[14] = system: goosegrass (Eleusine indica); assay: Test B pre-/postemergence plant response
Summary of the method: as §2

[15] = 8 g ai/ha, postemergence, 0-100 scale
[16] = 62 g ai/ha, scale 0 to 100, 0 no effect, 100 complete control
[17] = Postemergence, 16 g ai/ha, scale 0 to 100
[18] = Postemergence, 31 g ai/ha, scale 0 to 100
[19] = Postemergence, 62 g ai/ha, scale 0 to 100, 0 no effect, 100 complete control
[20] = Preemergence, 16 g ai/ha, scale 0 to 100 (0 no effect, 100 complete control)
[21] = Preemergence, 31 g ai/ha, scale 0 to 100 (0 no effect, 100 complete control)
[22] = Preemergence, 62 g ai/ha, 0 to 100 scale, 0 no effect, 100 complete control
[23] = 31 g ai/ha, scale 0 to 100 (0 no effect, 100 complete control)
[24] = 62 g ai/ha, 0 to 100 scale, 0 no effect, 100 complete control
[25] = 16 g ai/ha, postemergence, 0-100 scale
[26] = Preemergence, 8 g ai/ha, scale 0 to 100
[27] = Preemergence, 16 g ai/ha, scale 0 to 100

CCc1cc(-c2ccc(C(F)(F)F)cc2)nn1-c1c(O)cnn(CC)c1=O [Compound 67]
95: Plant response rating, Barley ([1]; 31 g ai/ha) | Windgrass plant response rating ([2]; 8 g ai/ha) | Wheat plant response rating [7, 15] | Plant response rating, Foxtail, Giant [13, 17] | Plant response rating, Oat, Wild (wild oat (Avena fatua); [21]) | Oat, Wild plant response rating (wild oat (Avena fatua); [27])
35: Barley plant response rating [1, 15]
80: Johnsongrass plant response rating [8, 15]
98: Johnsongrass plant response rating [8, 25] | Plant response rating, Crabgrass, Large [10, 17]
70: Wheat plant response rating [7, 27] | Johnsongrass plant response rating [8, 26] | Crabgrass, Large plant response rating [10, 15] | Goosegrass plant response rating [14, 25]
100: Windgrass plant response rating ([2]; 16 g ai/ha) | Plant response rating, Windgrass ([2]; 31 g ai/ha, scale 0 to 100) | Plant response rating, Windgrass [2, 16] | Wheat plant response rating [7, 25] | Plant response rating, Wheat [7, 18] | Plant response rating, Wheat [7, 19] | Plant response rating, Wheat [7, 21] | Plant response rating, Wheat [7, 22] | Plant response rating, Johnsongrass [8, 18] | Plant response rating, Johnsongrass [8, 19] | Plant response rating, Johnsongrass [8, 21] | Plant response rating, Johnsongrass [8, 22] | Plant response rating, Crabgrass, Large [10, 18] | Plant response rating, Crabgrass, Large [10, 19] | Plant response rating, Blackgrass [12, 17] | Plant response rating, Blackgrass [12, 18] | Plant response rating, Blackgrass [12, 19] | Plant response rating, Blackgrass [12, 20] | Plant response rating, Blackgrass [12, 21] | Plant response rating, Blackgrass [12, 22] | Blackgrass plant response rating ([12]; Preemergence, scale 0 to 100) | Plant response rating, Foxtail, Giant [13, 18] | Plant response rating, Foxtail, Giant [13, 19] | Oat, Wild plant response rating (wild oat (Avena fatua); [15]) | Oat, Wild plant response rating (wild oat (Avena fatua); [25]) | Plant response rating, Oat, Wild (wild oat (Avena fatua); [18]) | Plant response rating, Oat, Wild (wild oat (Avena fatua); [19]) | Plant response rating, Oat, Wild (wild oat (Avena fatua); [22])
60: Plant response rating, Goosegrass [14, 22]
65: Goosegrass plant response rating [14, 15]
0: Cocklebur plant response rating ([3]; postemergence, 0-100 scale) | Plant response rating, Cocklebur [3, 17] | Plant response rating, Cocklebur [3, 18] | Plant response rating, Cocklebur [3, 19] | Plant response rating, Cocklebur [3, 20] | Plant response rating, Cocklebur [3, 21] | Plant response rating, Cocklebur [3, 22] | Cocklebur plant response rating ([3]; Preemergence, scale 0 to 100) | Plant response rating, Sunflower [4, 23] | Plant response rating, Sunflower [4, 24] | Sunflower plant response rating ([4]; 8 g ai/ha) | Sunflower plant response rating ([4]; 16 g ai/ha) | Nutsedge, Yellow plant response rating [5, 15] | Nutsedge, Yellow plant response rating [5, 25] | Plant response rating, Nutsedge, Yellow [5, 18] | Plant response rating, Nutsedge, Yellow [5, 19] | Plant response rating, Nutsedge, Yellow [5, 21] | Plant response rating, Nutsedge, Yellow [5, 22] | Nutsedge, Yellow plant response rating [5, 26] | Nutsedge, Yellow plant response rating [5, 27] | Ragweed plant response rating ([6]; 8 g ai/ha) | Ragweed plant response rating ([6]; 16 g ai/ha) | Plant response rating, Ragweed [6, 18] | Plant response rating, Ragweed [6, 19] | Plant response rating, Ragweed [6, 22] | Plant response rating, Galium [9, 23] | Plant response rating, Galium [9, 24] | Galium plant response rating ([9]; 8 g ai/ha) | Galium plant response rating ([9]; 16 g ai/ha) | Plant response rating, Crabgrass, Large [10, 21] | Plant response rating, Crabgrass, Large [10, 22] | Crabgrass, Large plant response rating [10, 26] | Crabgrass, Large plant response rating [10, 27] | Lambsquarters plant response rating ([11]; 8 g ai/ha) | Lambsquarters plant response rating ([11]; 16 g ai/ha) | Plant response rating, Lambsquarters ([11]; 31 g ai/ha, scale 0 to 100) | Plant response rating, Lambsquarters [11, 16] | Plant response rating, Foxtail, Giant [13, 21] | Plant response rating, Foxtail, Giant [13, 22] | Foxtail, Giant plant response rating [13, 26] | Foxtail, Giant plant response rating [13, 27] | Plant response rating, Goosegrass [14, 21] | Goosegrass plant response rating [14, 26] | Goosegrass plant response rating [14, 27]
85: Plant response rating, Barley ([1]; 16 g ai/ha) | Blackgrass plant response rating ([12]; postemergence, 0-100 scale) | Foxtail, Giant plant response rating [13, 15] | Plant response rating, Goosegrass [14, 18]
90: Johnsongrass plant response rating [8, 27] | Oat, Wild plant response rating (wild oat (Avena fatua); [26]) | Plant response rating, Goosegrass [14, 19]
